Assay results reported in patent US20220160703A1, “TUMOR-SELECTIVE COMBINATION THERAPY” (The Board of Regents of The University of Texas System, priority 2019, published 2022).

Columns and labels:
NQO1 = NQO1 (Homo sapiens, UniProt P15559); assay: NQO1-catalyzed futile redox cycle / processing in vitro; assay type: biochemical; settings: compared with β-lap
[1] = Aqueous solubility of DNQ in PBS by LC-MS; assay type: physicochemical; settings: pH 7.4 phosphate buffered saline, 30 min sonication, filtered
Experimental: The aqueous solubility of DNQ at pH 7.4 in phosphate buffered saline (PBS) was measured by LC-MS. DNQ was sonicated for 30 minutes in PBS then undissolved solid was removed by filtration through a 0.45 μm syringe filter and the filtrate was analyzed by LC-MS (λ=275 nm, ESI-TOF in negative mode). The optimal sonication time was determined by sonicating DNQ for 1, 5, 10, and 30 minutes. While the concentration of DNQ in solution increased substantially between 1, 5, and 10 minutes, there was only a minor difference between 10 and 30 minutes. During the 30-minute sonication the water bath warmed to 45° C. (samples were cooled to room temperature before filtration). A calibration curve was generated from 1-100 μM by dissolving DNQ in methanol to a concentration of 500 μM and making dilutions of this stock in 80:20 water:methanol. The calibration curve (measure by UV absorbance) was linear over this range; 1 μM was approximately the limit of detection. […] The solution was very pale yellow.

[2] = Formulation of DNQ compounds in HPβCD; assay type: physicochemical
Source text: This same neutral solution of DNQ in HPβCD cannot be made directly (i.e. without pH adjustment). […] The only proton on DNQ that might reasonably be deprotonated in aqueous base is the N—H. […] The protocol for formulating DNQ compounds in HPβCD is as follows: the DNQ compound is slurried in a 20% solution of HPβCD in pH 7.4 PBS and the pH is then increased by the addition of 10 M NaOH to induce dissolution of the DNQ compound. The pH is returned to pH 7.5-8.0 by the careful addition of 1 M HCl. A 3.3 mM solution of the DNQ compound can be made by this method which is stable at least 24 hours. This represents a 30-fold increase in solubility of DNQ over PBS alone. The inventors initially chose a 20% HPβCD solution.

[3] = system: NQO1 positive tumor cell lines MC38, TC-1 and Ag104Ld; assay type: cell-based; settings: MC38 and B16 NQO1 cells, β-lap 3 hr, catalase 1000 U/ml, survival 48 hr later
Experimental: (FIG. 1A) NQO1 positive tumor cell lines MC38, TC-1 and Ag104Ld and NQO1 negative cell lines Panc02 and B16 grown in 48-well plates were treated with β-lap (0-8 μM) for a 3 hr followed by washing and replacing medium. Cell viability was determined by Sulforhodamine B (SRB) Assay 4 days later. […] (FIG. 1C) MC38 cells with CRISPR-based NQO1 Knockout (MC38 NQO1KO #5) planted in 96-well plates were exposed to β-lap for 3 hr and cell survival was assessed 48 hr later. […] (FIG. 1E) MC38 cells were exposed to a lethal dose of β-lap (4 μM) for indicated times, then stained with 7-AAD and Annexin V followed by flow cytometry analysis. […] (FIG. 1H) MC38 and B16 NQO1 #1 cells were exposed to β-lap for a 3 hr. Catalase (1000 U/ml) was added and cell survival was assessed 48 hr later. (FIG. 1I) C57BL/6 mice (n=5/group) were transplanted with MC38 cells and treated with β-lap (0.03 mg, 0.1 mg or 0.3 mg, intratumorally; or 25 mg/kg, i.v.) every other day for four times. […] Tumor growth was monitored twice a week.
(FIG. 8A) NQO1 expression in multiple murine tumor lines was immunoblotted as indicated. […] Drugs were removed and survival assessed 5 days later. (FIG. 8C) Relative H2O2 levels were assessed in various cells treated with β-lap for 3 h at the indicated doses using CellRox-Glo. […] (FIG. 8D) TC-1 cells exposure to β-lap for 12 h, later PARP-1 and Caspase-3 levels were analyzed by western blotting assay. […]
(FIGS. 14A-C) NQO1 cells MC38 (A) and TC-1 (B) and NQO1^− cells B16 (C) were treated for 2 h with various doses of IB-DNQ±DIC (50 μM). Drugs were removed and survival assessed 6 days later. […] (FIGS. 14E-F) Relative NAD^+ (E) or ATP (F) levels were assessed in TC-1 cells exposed to various doses of IB-DNQ for 2 h. […] Comet tail lengths in a.u. were monitored at indicated time; and DSBs quantified by γH2AX foci/nuclei using immunofluorescence at indicated time (FIG. 14H). […]
(FIG. 21A) Viability of murine cell lines following IB-DNQ treatment for 4 h. […] (FIGS. 21D-E) DNA double strand break was assessed via comet assay (FIG. 21D) and γH2AX foci/nuclei immunofluorescence (FIG. 21E). […]

Chain of NQO1 (P15559 whole entry, species assumed): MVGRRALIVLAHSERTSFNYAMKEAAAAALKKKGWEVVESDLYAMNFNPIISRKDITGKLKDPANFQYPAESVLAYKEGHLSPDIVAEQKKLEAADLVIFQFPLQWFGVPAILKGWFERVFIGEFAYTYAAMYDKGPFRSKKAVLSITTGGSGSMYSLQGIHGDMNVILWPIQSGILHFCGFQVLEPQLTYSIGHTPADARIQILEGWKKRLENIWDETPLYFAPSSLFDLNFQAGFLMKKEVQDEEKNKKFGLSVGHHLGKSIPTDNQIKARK

In the case of Cc1cc(=O)[nH]c2c1C(=O)c1c(C)cc(=O)n(C)c1C2=O [DNQ, Deoxynyboquinone], the “efficiency of processing by NQO1 in vitro” value (NQO1) is reported as “much more efficiently than β-lap”, the “solubility of DNQ in PBS” value [1] is reported as 115 µM and the “stability of the HPβCD solution” value ([2]; 3.3 mM solution in 20% HPβCD) is reported as “at least 24 hours”. The “increase in solubility over PBS alone” value ([2]; 20% HPβCD) was 30 fold, the “concentration of solution that can be made in HPβCD” value ([2]; 20% HPβCD in pH 7.4 PBS, pH raised with NaOH then returned to pH 7.5-8.0) was 3300 µM and the “concentration of solution permitted by 40% HPβCD” value ([2]; 40% HPβCD, concentration increases linearly with HPβCD) was 6600 µM.
For Catalase, the “effect of H2O2 scavenging on β-lap lethality” value [3] was “significantly spared β-lap-mediated lethality”.
